In patent US20100216788A1, “FUSED HETEROCYCLIC COMPOUND” (TAKEDA PHARMACEUTICAL COMPANY LIMITED, priority 2005, published 2010):
Counter-ions that a name gives are not always drawn.

Tests used:
[1] = molecular target: T1, HER2 intracellular domain (Homo sapiens, UniProt P04626); assay: Determination of HER2 kinase inhibitory activity; assay type: biochemical; conditions: test compound at 1.0 μM, poly-Glu:Tyr (4:1) substrate, [γ-32P]ATP, 25° C. 10 min; for inhibition at 1 µM: read-out: Inhibitory rate (%) at 1.0 μM
T1 construct: made in house; host or cells: SF-21 insect cells infected with recombinant baculovirus BAC-HER2 (pFASTBAC1)
T1 sequence (P04626 676-1255 limits assumed): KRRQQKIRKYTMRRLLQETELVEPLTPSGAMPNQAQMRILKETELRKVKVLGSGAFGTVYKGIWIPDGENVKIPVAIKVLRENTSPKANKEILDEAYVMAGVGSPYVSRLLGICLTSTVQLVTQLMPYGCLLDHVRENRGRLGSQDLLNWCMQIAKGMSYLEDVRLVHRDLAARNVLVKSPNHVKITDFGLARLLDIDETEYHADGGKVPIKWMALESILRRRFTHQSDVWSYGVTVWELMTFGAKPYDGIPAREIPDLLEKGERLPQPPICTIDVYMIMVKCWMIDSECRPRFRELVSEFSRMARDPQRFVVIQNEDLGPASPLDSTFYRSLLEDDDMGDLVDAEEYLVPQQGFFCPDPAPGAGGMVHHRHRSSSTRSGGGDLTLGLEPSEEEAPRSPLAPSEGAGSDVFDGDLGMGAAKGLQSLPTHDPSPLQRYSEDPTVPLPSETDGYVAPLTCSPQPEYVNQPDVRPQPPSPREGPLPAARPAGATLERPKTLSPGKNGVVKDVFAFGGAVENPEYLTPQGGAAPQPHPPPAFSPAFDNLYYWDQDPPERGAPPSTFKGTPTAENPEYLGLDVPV
Experimental: Human HER2 gene was cloned by RT-PCR using total RNA prepared from MCF7 cells as a template. The primer used for RT-PCR was prepared from nucleotide sequence (Genbank Accession No. M11730) information of HER2 gene by adding a nucleotide sequence encoding DYKDDDD peptide and a restriction enzyme recognition sequence to a nucleotide sequence (2176-3918 of Genbank Accession No. M11730) encoding the HER2 intracellular domain region, so that the protein contains an N-terminal DYKDDDD peptide tag. The primer nucleotide sequence is shown below.
The RT reaction was conducted using SuperScript First-Strand Synthesis System for RT-PCR (Invitrogen) and the PCR reaction was conducted using a KOD-plus kit (TOYOBO). The obtained PCR product was electrophoresed on agarose gel (1%), the DNA fragment amplified by PCR was recovered from the gel, and then digested with restriction enzymes Sal I and Sph I. The DNA treated with the restriction enzymes was electrophoresed on agarose gel (1%), and the obtained DNA fragment was recovered and ligated to plasmid pFASTBAC1 (Invitrogen) digested with restriction enzymes Sal I and Sph I to give expression plasmid pFB-HER2. The nucleotide sequence of the insertion fragment was confirmed and found to be identical with the nucleotide sequence (2176-3918 of Genbank Accession M11730) of HER2 intracellular domain. Furthermore, using BAC-TO-BAC Baculovirus Expression System (Invitrogen), recombinant baculovirus BAC-HER2 was prepared.
SF-21 cells were sown at 1×10^6 cells/mL to Sf-900II SFM medium (1 L, Invitrogen) containing 10% fetal bovine serum (trace), 50 mg/L gentamicin (Invitrogen) and 0.1% Pluronic F-68 (Invitrogen), and shaking culture was performed using a 2 L volume Erlenmeyer flask at 27° C., 100 rpm. After culturing for 24 hr, recombinant baculovirus BAC-HER2 (13.4 mL) was added, and the mixture was further cultured for 3 days. The culture medium was centrifuged at 2,000 rpm for 5 min. to give virus-infected cells. The infected cells were washed with a phosphate buffered saline (Invitrogen), centrifuged under the same conditions, and the cells were preserved at −80° C. The cryopreserved cells were thawed in ice, suspended in buffer A (50 mM Tris buffer (30 mL, pH 7.4) containing 20% glycerol, 0.15 M NaCl) supplemented with Complete Protease Inhibitor (Boehringer), and ruptured 3 times with a Polytron homogenizer (Kinematica) at 20,000 rpm for 30 sec. The rupture medium was clarified by centrifugation at 40,000 rpm for 30 min. and filtered with a 0.45 μm filter. The filtrate was passed through a column packed with Anti-FLAG M2 Affinity Gel (4 mL, Sigma) at a flow rate of about 0.5 mL/min. The column was washed with buffer A, and eluted with buffer A containing 100 μg/mL of FLAG peptide. The eluate was concentrated with Vivaspin 20 (Vivascience) having a molecular weight cut off of 30K. The concentrate was purified by gel filtration using Hi Load Superdex 200pg 16/60 (Amersham Bioscience) equilibrated with buffer A. The fractions containing HER2 intracellular domain were collected, glycerol was added to the final concentration of 50% and cryopreserved at −80° C.
A test compound dissolved in dimethyl sulfoxide (DMSO) was diluted with a buffer for kinase reaction (50 mM Tris-HCl (pH7.5), 5 mM MgCl2, 5 mM MnCl2, 2 mM dithiothreitol, 0.01% Tween-20). To this compound solution (10 μL) was added a buffer for kinase reaction (20 μL) containing 5 μg/mL of HER2 intracellular domain obtained in Experimental Example 1B and 12.5 μg/mL of polypeptide substrate poly-Glu:Tyr (4:1) (Sigma). To the obtained mixture was added 20 μL of ATP solution (1.25 μM ATP, 0.05 μCi [γ-^32P]ATP), the mixture was allowed to react at 25° C. for 10 min. and the reaction was quenched with 50 μL of 20% TCA solution. The reaction solution was allowed to stand at 4° C. for 20 min., and the acid insoluble fraction was transferred to GF/C filter (PerkinElmer) using cell harvester (PerkinElmer) and washed with 250 mM phosphoric acid solution. […]

[2] = system: human breast cancer cell BT-474; assay: Inhibitory action on breast cancer cell BT-474 proliferation in vitro; assay type: cell-based; conditions: 120 h, BT-474 cells, cultured 5 days with compound, SRB staining of cell protein
Experimental: A suspension of human breast cancer cell. BT-474 (100 μl (6,000 cells)) were seeded to attach in a 96-well microplate and cultured in an incubator (37° C., 5% carbon dioxide). On the following day, 100 μl of a solution of each test compound previously diluted serially in 2-fold, was added to give indicated dose, and the cells were cultured for 5 days. After the culture medium containing the test compound was removed, the cells were washed and fixed with 50% trichloroacetic acid, after which a 0.4% (w/v) SRB solution (dissolved in 1% acetic acid) was added to stain the cell protein (Skehan et al., Journal of the National Cancer Institute, Vol. 82, pp. 1107-1112, 1990). After washing with a 1% acetic acid solution, 100 μl of Tris solution (10 mM) was added to extract the pigment and the absorbance was measured at a wavelength of 550 nm to quantify the amount of cells as protein content. Taking as 100% the protein content for the control group, which received no test compound solution, the ratio of the residual protein content for, each treatment group was determined, and the compound concentration required to achieve 50% suppression of the residual cell content relative to the control (IC50 value) was calculated.

CC(C)(C(=O)NCCn1ccc2ncnc(Nc3ccc(Oc4cccc(Cl)c4)c(Cl)c3)c21)S(C)(=O)=O [Example A-1, N-[2-(4-{[3-chloro-4-(3-chlorophenoxy)phenyl]amino}-5H-pyrrolo[3,2-d]pyrimidin-5-yl)ethyl]-2-methyl-2-(methylsulfonyl)propanamide]
inhibition at 1 µM [1]: 98% | IC50 [2]: < 100 nM

CC(C)(C(=O)NCCn1ccc2ncnc(Nc3ccc(Oc4cccc(Cl)c4)c(Cl)c3)c21)S(C)(=O)=O.Cc1ccc(S(=O)(=O)O)cc1 [Example A-15, N-[2-(4-{[3-chloro-4-(3-chlorophenoxy)phenyl]amino}-5H-pyrrolo[3,2-d]pyrimidin-5-yl)ethyl]-2-methyl-2-(methylsulfonyl)propanamide p-toluenesulfonate]
Inhibitory rate (%) at 1.0 μM [1]: 99%

OCCOCCn1ccc2ncnc(Nc3cnc(Oc4cccc(C(F)(F)F)c4)c(Cl)c3)c21 [Example B-1, 2-{2-[4-({5-chloro-6-[3-(trifluoromethyl)phenoxy]pyridin-3-yl}amino)-5H-pyrrolo[3,2-d]pyrimidin-5-yl]ethoxy}ethanol]
inhibition at 1 µM [1]: 99%

CC(C)(C)NC(=O)c1cccc(Oc2ccc(Nc3ncnc4ccn(CCO)c34)cc2Cl)c1 [Example C-26, N-(tert-butyl)-3-(2-chloro-4-{[5-(2-hydroxyethyl)-5H-pyrrolo[3,2-d]pyrimidin-4-yl]amino}phenoxy)benzamide]
inhibition at 1 µM [1]: 98%

O=C(Nc1cccc(Oc2ccc(Nc3ncnc4ccn(CCOCCO)c34)cc2Cl)c1)C1CC1 [Example C-45, N-{3-[2-chloro-4-({5-[2-(2-hydroxyethoxy)ethyl]-5H-pyrrolo[3,2-d]pyrimidin-4-yl}amino)phenoxy]phenyl}cyclopropanecarboxamide]
inhibition at 1 µM [1]: 97% | IC50 [2]: < 100 nM

CC(C)(C)NC(=O)Cc1cccc(Oc2ccc(Nc3ncnc4ccn(CCO)c34)cc2Cl)c1 [Example C-89, N-(tert-butyl)-2-[3-(2-chloro-4-{[5-(2-hydroxyethyl)-5H-pyrrolo[3,2-d]pyrimidin-4-yl]amino}phenoxy)phenyl]acetamide]
inhibition at 1 µM [1]: 100%

CS(=O)(=O)CC(=O)NCCn1ccc2ncnc(Nc3ccc(Oc4cccc(OCC5CC5)c4)c(Cl)c3)c21 [Example C-97, N-{2-[4-({3-chloro-4-[3-(cyclopropylmethoxy)phenoxy]phenyl}amino)-5H-pyrrolo[3,2-d]pyrimidin-5-yl]ethyl}-2-(methylsulfonyl)acetamide hydrochloride]
IC50 [2]: < 100 nM

Cc1cc(Nc2ncnc3ccn(CCNC(=O)CS(C)(=O)=O)c23)ccc1Oc1cccc(OCC(F)(F)F)c1 [Example C-116, 2-(methylsulfonyl)-N-{2-[4-({3-methyl-4-[3-(2,2,2-trifluoroethoxy)phenoxy]phenyl}amino)-5H-pyrrolo[3,2-d]pyrimidin-5-yl]ethyl}acetamide hydrochloride]
IC50 [2]: < 100 nM

CC(C)(C)CC(=O)c1cccc(Oc2ccc(Nc3ncnc4ccn(CCO)c34)cc2Cl)c1 [Example E-22, 1-[3-(2-chloro-4-{[5-(2-hydroxyethyl)-5H-pyrrolo[3,2-d]pyrimidin-4-yl]amino}phenoxy)phenyl]-3,3-dimethylbutan-1-one]
inhibition at 1 µM [1]: 99%

CC(C)(O)CC(=O)NCCn1ccc2ncnc(Nc3ccc4c(cnn4Cc4cccc(F)c4)c3)c21 [Example G-5, N-[2-(4-{[1-(3-fluorobenzyl)-1H-indazol-5-yl]amino}-5H-pyrrolo[3,2-d]pyrimidin-5-yl)ethyl]-3-hydroxy-3-methylbutanamide]
inhibition at 1 µM [1]: 93% | IC50 [2]: < 100 nM

CC(C)(C)NC(=O)c1cccc(Cn2ncc3cc(Nc4ncnc5ccn(CCO)c45)ccc32)c1 [Example G-14, N-(tert-butyl)-3-[(5-{[5-(2-hydroxyethyl)-5H-pyrrolo[3,2-d]pyrimidin-4-yl]amino}-1H-indazol-1-yl)methyl]benzamide]
inhibition at 1 µM [1]: 100%
